According to patent publication US20100267803A1, “Regulators Of Fat Metabolism As Anti-Cancer Targets” (The Research Foundation of State University Of New York, priority 2008, published 2010):

How the values were obtained:
Format in all cases: cell-based, human
BT474 cells [1] = assay: RNAi screen, alamarBlue cell proliferation and viability; details: shRNA transfection
Source text: (§1) FIG. 1 An RNAi screen targeting genes overexpressed in breast cancer. (a) Three transfection mixes were produced for each shRNA and each was transfected into triplicate wells of BT474 cells. AlamarBlue was used to monitor cell proliferation and viability. […] (b) The genetic and functional linkage of NR1D1 and PBP. Mb refers to map position on chromosome 17. (c) ERBB2-overexpressing (OEX) and ERBB2 non-overexpressing (non-OEX) breast cancer cell lines as well as the (non-OEX) HMEC and HEK 293 cells were transfected and assayed as in (a). […] Genes clustered with ERBB2 are boxed.
Amplification of the ERBB2 oncogene occurs in 10-34% of breast cancer cases and is correlated with aggressive disease and poor clinical outcome^1. […] However, its success has been tempered by response rates of only 30% when used as a single agent therapy in patients with metastatic ERBB2-positive breast cancer^2. A large number of genes co-overexpressed with ERBB2 in this tumour type have been proposed to contribute to the aggressiveness of this cancer^3-5. Applicants have performed an unbiased functional RNAi screen^8-10 to determine if any of these co-overexpressed genes are essential for ERBB2 positive breast cancer cell survival.
RNAi screen, transfections and constructs. The flag-RevErba (flag-NR1D1) overexpression construct was a generous gift of M. Lazar. The LSXN-neu* (ERBB2) overexpression construct was a generous gift of L. Petti. shRNA constructs were expressed from the pSHAG-MAGIC 2 (pSM2) vector and derived from a genome-wide shRNA library^31. ShRNAs targeting the firefly (Photinus pyralis) luciferase gene were used as controls. Transfection efficiency was monitored by co-transfection with a modified MSCV-Puro vector expressing green fluorescent protein (GFP). The alamarBlue (Biosource) assay was performed 96 h post-transfection, since BT474 cells have a population doubling time of ˜100 hours. For mature sequences of the shRNAs that produced the best results on decreasing BT474 viability, Table S1; a complete list is available in the RNAi Codex web page (http://codex.cshl.edu). The shRNAs targeting the luciferase gene were constructed as described in the RNAi Codex web page (http://codex.cshl.edu/scripts/newmain.pl) using a modified pSM2 vector containing the PheS gene (pSM2-PheS) in the cloning site, as a negative selection marker. The empty vector control (pSM2e) was constructed by XhoI and EcoRI (New England Biolabs) digestion of pSM2-PheS, followed by nucleotide filling of protruding ends by Klenow polymerase and blunt-end ligation. Transfections were performed using FuGENE 6 and HD FuGENE (Roche) according to the manufacturer's protocol. High-throughput transfections were performed using an EpMotion 5070 fluidics station (Eppendorf). For quantification of alamarBlue we used a BioTek HT Synergy plate reader. AlamarBlue values from the RNAi screens on other cell types were also calculated as above and subjected to hierarchical cluster analysis using Cluster 2.11 (M. Eisen Lab).

[2] = test system: ERBB2 overexpressing (BT474, MDA-MB-361) breast cancer cell lines; assay: alamarBlue proliferation of shRNA-transfected ERBB2-overexpressing cell lines; details: shRNA transfection
Source text: as §1
(§2) To assess the specificity of effect of each shRNA on cell proliferation, those causing the greatest decrease in BT474 cell proliferation were transfected in a variety of cell lines, including ERBB2 overexpressing (BT474, MDA-MB-361) and nonoverexpressing breast cancer cell lines (MCF-7, MDA-MB-453, MDA-MB-468), normal human mammary epithelial cells (HMECs) and a non-breast tumorigenic cell line (HEK 293FT). […] PBP, NRID1 and PFN2 shRNAs clustered with ERBB2.
(§3) RNAi screen, transfections and constructs. The flag-RevErba (flag-NR1D1) overexpression construct was a generous gift of M. Lazar. The LSXN-neu* (ERBB2) overexpression construct was a generous gift of L. Petti. shRNA constructs were expressed from the pSHAG-MAGIC 2 (pSM2) vector and derived from a genome-wide shRNA library^31. ShRNAs targeting the firefly (Photinus pyralis) luciferase gene were used as controls. Transfection efficiency was monitored by co-transfection with a modified MSCV-Puro vector expressing green fluorescent protein (GFP). The alamarBlue (Biosource) assay was performed 96 h post-transfection, since BT474 cells have a population doubling time of ˜100 hours. […] For quantification of alamarBlue we used a BioTek HT Synergy plate reader. AlamarBlue values from the RNAi screens on other cell types were also calculated as above and subjected to hierarchical cluster analysis using Cluster 2.11 (M. Eisen Lab).

[3] = test system: nonoverexpressing breast cancer cell lines (MCF-7, MDA-MB-453, MDA-MB-468), HMECs, HEK 293FT; assay: alamarBlue proliferation of shRNA-transfected ERBB2 non-overexpressing cell lines; details: MCF-7, MDA-MB-453, MDA-MB-468, HMEC, shRNA transfection
Source text: as §1, §2, §3

ACLY mRNA = assay: qRT-PCR of ACLY mRNA in BT474 cells; details: shRNA or 20 μM GW9662 for 48 h
Method: (§4) FIG. 4 NR1D1 and PBP coordinate fatty acid metabolism in breast cancer cells. (a) BT474, MDA-MB-361, MCF-7 and HMEC cells were stained with Oil-Red O lipid and hematoxylin nuclear stains. (b) Fat stores were quantified by BODIPY 493/503 lipid probe staining (Error bars are s.d from 3 individual experiments). (c) FASN, ACLY, ACACA and FADS2 mRNA levels of BT474 cells treated with luciferase (control), PBP or NR1D1 shRNAs, or with vehicle and 20 μM of GW9662 for 48 h, analyzed by qRT-PCRs. (Error bars are s.d from 3 experiments; ***P<0.001, **P=0.005) (d) BT474 cells were transfected with FASN, ACLY and ACACA shRNAs and co-transfected with GFP. Transfected cells were counted at 24 h and 72 h and the 72h-to-24 h ratio for each shRNA was calculated and expressed as % of the control shRNA (luciferase). (Error bars are s.d from 3 individual experiments; **P<0.01, ***P<0.002). (e) BODIPY images and (f) quantification of BT474 cells transfected with luciferase (control), PBP or NR1D1 shRNAs and co-transfected with DsRed (Error bars are s.d from 3 individual experiments; ***P<0.03). Arrows indicate transfected cells.
(§5) Cell viability—apoptosis assays. […] At least 30 fields were imaged per single experiment. […] Immunoblotting. […] PCR reaction was run using standard conditions.

FADS2 mRNA = assay: qRT-PCR of FADS2 mRNA in BT474 cells; details: shRNA or 20 μM GW9662 for 48 h
Method: as §4, §5

BT474 cells [4] = assay: Neutral fat stores by BODIPY 493/503 staining; details: first 48 h after transfection
Method: as §4
Metabolic assays. […] Transfected cells were monitored by co-transfecting with the pDsRed-Monomer-N1 vector (Clontech). Cells were imaged and analyzed using the In Cell Analyzer 1000—In Cell Investigator 3.4 system (GE Biosciences), as described above. […]

| Substance | effect on cell proliferation (BT474 cells [1]) | viability of ERBB2-positive cells [2] | effect on other cell lines or HMECs [3] | ACLY transcript level (ACLY mRNA) | FADS2 transcript levels (FADS2 mRNA) | decrease in fat stores (BT474 cells [4]) [%] |
| --- | --- | --- | --- | --- | --- | --- |
| NR1D1 shRNA: shRNA, mature sequence GGCATGGTGTTACTGTGTA (shRNA) | most dramatic effect on cell proliferation | specifically decreased the viability of ERBB2-positive cells | without effect on other cell lines or HMECs | reduced | downregulated | 47 |
| PBP shRNA: shRNA, mature sequence CCGAGTTCCTCTTATCCTA (shRNA) | most dramatic effect on cell proliferation | specifically decreased the viability of ERBB2-positive cells | without effect on other cell lines or HMECs | reduced | downregulated | 30 |
